Measurements as given in patent US12637462B2, “Integrin inhibitor and uses thereof” (Pliant Therapeutics, Inc., priority 2020, dated 2026).
Values after ≈ are worked out from the molar mass of the structure shown. Like-named read-outs stand apart in the source and are kept apart here. Values belong to the molecule of their own block, whether it stands above or below them.

Columns and labels:
[1] = Heating experiment, solid form checked by XRPD; type: physicochemical; conditions: for solid form after heating: after heating to 150° C.
[2] = Dynamic vapor sorption (DVS); type: physicochemical; conditions: 4.5 g scale batch
Experimental: DVS was measured via a SMS (Surface Measurement Systems) DVS Intrinsic. The relative humidity at 25° C. were calibrated against the deliquescence point of LiCl, Mg(NO3)2 and KCl.
Form I on 4.5 g scale was obtained via slurrying 4.5 g amorphous freeform of (S)-4-((2-methoxyethyl)(4-(5,6,7,8-tetrahydro-1,8-naphthyridin-2-yl)butyl)amino)-2-(quinazolin-4-ylamino)butanoic acid and an equimolar amount of 85% phosphoric acid (1.05 g) in anhydrous EtOH (≥99.7%) (112 mL) at RT and seeded with around 1 wt % Form I seed. The product was analyzed by XRPD, DSC, TGA, DVS, ^1H NMR, and HPLC. […] Based on HPLC/IC analysis, the molar ratio of API:phosphoric acid was 1:1.

[3] = Approximate solubility at RT by stepwise solvent addition; type: physicochemical
Experimental: The approximate solubility of (S)-4-((2-methoxyethyl)(4-(5,6,7,8-tetrahydro-1,8-naphthyridin-2-yl)butyl)amino)-2-(quinazolin-4-ylamino)butanoic acid was determined at RT. Approximately 2 mg of solids were added into a 3-mL glass vial. Different solvents were then added stepwise (50-50-200-700 μL for each step) into the vials and stirred until the solids were dissolved or a total volume of 1 mL was reached.
The approximate solubility of Form I was determined at RT. Approximately 2 mg of solids were added into 3-mL glass vials. Different solvents were then added stepwise (50-50-200-700 μL for each step) into the vials until the solids were dissolved or a total volume of 1 mL was reached.

[4] = biological target: recombinant human integrin αvβ6 (Homo sapiens, UniProt P06756+P18564); assay: Solid phase integrin αvβ6 binding assay; conditions: TGFβ1 LAP binding to coated integrin, four-parameter logistic regression; read-out: IC50 for αvβ6 integrin inhibition
Sequence of recombinant human integrin αvβ6 (P06756 31-992 limits assumed): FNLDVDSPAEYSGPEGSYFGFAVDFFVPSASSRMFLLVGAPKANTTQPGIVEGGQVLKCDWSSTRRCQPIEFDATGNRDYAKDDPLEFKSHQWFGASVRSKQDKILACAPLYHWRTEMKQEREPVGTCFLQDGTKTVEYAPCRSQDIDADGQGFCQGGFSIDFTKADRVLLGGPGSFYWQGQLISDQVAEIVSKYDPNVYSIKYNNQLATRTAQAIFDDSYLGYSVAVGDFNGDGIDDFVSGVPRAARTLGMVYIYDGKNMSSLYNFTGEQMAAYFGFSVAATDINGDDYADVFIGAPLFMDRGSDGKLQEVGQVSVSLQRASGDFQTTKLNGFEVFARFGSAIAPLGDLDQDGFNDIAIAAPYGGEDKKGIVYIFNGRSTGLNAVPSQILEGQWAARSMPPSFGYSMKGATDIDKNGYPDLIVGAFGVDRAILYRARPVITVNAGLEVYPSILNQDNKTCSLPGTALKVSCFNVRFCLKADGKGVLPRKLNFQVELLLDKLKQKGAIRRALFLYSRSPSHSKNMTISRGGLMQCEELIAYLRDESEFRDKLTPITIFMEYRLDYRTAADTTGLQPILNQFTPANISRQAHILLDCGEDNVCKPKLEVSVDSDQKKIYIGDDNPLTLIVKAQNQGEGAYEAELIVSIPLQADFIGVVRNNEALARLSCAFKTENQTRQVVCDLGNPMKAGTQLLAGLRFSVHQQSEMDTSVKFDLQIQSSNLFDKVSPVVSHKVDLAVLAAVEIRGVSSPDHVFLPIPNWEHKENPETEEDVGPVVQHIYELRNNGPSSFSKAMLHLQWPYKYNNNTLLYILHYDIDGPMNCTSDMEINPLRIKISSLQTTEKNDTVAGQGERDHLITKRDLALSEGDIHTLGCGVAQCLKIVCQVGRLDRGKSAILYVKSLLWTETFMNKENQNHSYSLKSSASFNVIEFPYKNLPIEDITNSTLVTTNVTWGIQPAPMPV
Sequence of recombinant human integrin αvβ6 (P18564 22-707 limits assumed): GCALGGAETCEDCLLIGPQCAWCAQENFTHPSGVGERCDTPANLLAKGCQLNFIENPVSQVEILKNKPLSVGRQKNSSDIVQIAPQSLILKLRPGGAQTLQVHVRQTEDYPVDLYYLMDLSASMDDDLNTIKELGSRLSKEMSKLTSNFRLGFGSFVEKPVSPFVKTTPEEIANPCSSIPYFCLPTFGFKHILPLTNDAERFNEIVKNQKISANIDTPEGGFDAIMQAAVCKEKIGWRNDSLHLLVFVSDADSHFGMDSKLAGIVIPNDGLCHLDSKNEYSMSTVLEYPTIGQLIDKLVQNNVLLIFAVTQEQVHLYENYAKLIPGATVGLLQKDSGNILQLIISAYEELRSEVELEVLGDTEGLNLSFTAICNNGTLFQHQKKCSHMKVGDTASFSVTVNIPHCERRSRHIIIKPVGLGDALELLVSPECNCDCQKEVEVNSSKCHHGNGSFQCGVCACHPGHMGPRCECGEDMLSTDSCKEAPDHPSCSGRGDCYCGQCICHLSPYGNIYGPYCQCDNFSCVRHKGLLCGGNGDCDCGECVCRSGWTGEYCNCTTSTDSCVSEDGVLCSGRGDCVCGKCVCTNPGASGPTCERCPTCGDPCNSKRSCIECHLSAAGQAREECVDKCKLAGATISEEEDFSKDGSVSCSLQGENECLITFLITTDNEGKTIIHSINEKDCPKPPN
Experimental: Microplates were coated with recombinant human integrin αvβ6 (2 μg/mL) in PBS (100 μL/well 25° C., overnight). The coating solution was removed, washed with wash buffer (0.05% Tween 20; 0.5 mM MnCl2; in 1×TBS). The plate was blocked with 200 μL/well of Block Buffer (1% BSA; 5% sucrose; 0.5 mM MnCl2; in 1×TBS) at 37° C. for 2 h. Dilutions of testing compounds and recombinant TGFβ1 LAP (0.67 μg/mL) in binding buffer (0.05% BSA; 2.5% sucrose; 0.5 mM MnCl2; in 1×TBS) were added. The plate was incubated for 2 hours at 25° C., washed, and incubated for 1 hour with Biotin-Anti-hLAP. Bound antibody was detected by peroxidase-conjugated streptavidin. The IC50 values for testing compounds were calculated by a four-parameter logistic regression. The IC50 value obtained for αvβ6 integrin inhibition for (S)-4-((2-methoxyethyl)(4-(5,6,7,8-tetrahydro-1,8-naphthyridin-2-yl)butyl)amino)-2-(quinazolin-4-ylamino)butanoic acid was <50 nM.

form change after heating ([1]; after heating to 110° C.): No form changes
solid form after heating [1]: amorphous
water absorption ([2]; 25° C./80% RH): 16.4%
state after the DVS test ([2]; after DVS test): deliquescent
Solubility ([3]; 1,4-Dioxane): S < 1.7 mg/mL
Solubility ([3]; 2-MeTHF): S < 2.1 mg/mL
Solubility ([3]; ACN): S < 1.6 mg/mL
Solubility ([3]; Acetone): S < 1.9 mg/mL
Solubility ([3]; CPME): S < 1.9 mg/mL
Solubility ([3]; DCM): S < 2.8 mg/mL
Solubility ([3]; EtOAc): S < 1.7 mg/mL
Solubility ([3]; H2O): S > 56.0 mg/mL
Solubility ([3]; IPA): S < 2.2 mg/mL
Solubility ([3]; IPAc): S < 2.6 mg/mL
Solubility ([3]; MEK): S < 2.4 mg/mL
Solubility ([3]; MIBK): S < 2.8 mg/mL
Solubility ([3]; MTBE): S < 2.1 mg/mL
Solubility ([3]; MeOH): S > 52.0 mg/mL
Solubility ([3]; THF): S < 1.6 mg/mL
Solubility ([3]; Toluene): S < 2.2 mg/mL
Solubility ([3]; n-Heptane): S < 2.1 mg/mL
SMILES: COCCN(CCCCc1ccc2c(n1)NCCC2)CC[C@H](Nc1ncnc2ccccc12)C(=O)O [Form I, (S)-4-((2-methoxyethyl)(4-(5,6,7,8-tetrahydro-1,8-naphthyridin-2-yl)butyl)amino)-2-(quinazolin-4-ylamino)butanoic acid]

solid form after heating [1]: amorphous
SMILES: COCCN(CCCCc1ccc2c(n1)NCCC2)CC[C@H](Nc1ncnc2ccccc12)C(=O)O [Form II, (S)-4-((2-methoxyethyl)(4-(5,6,7,8-tetrahydro-1,8-naphthyridin-2-yl)butyl)amino)-2-(quinazolin-4-ylamino)butanoic acid]

Solubility ([3]; 1,4-Dioxane): S > 42.0 mg/mL
Solubility ([3]; DCM): S > 38.0 mg/mL
Solubility ([3]; DMSO): S > 42.0 mg/mL
Solubility ([3]; EtOH): S > 44.0 mg/mL
Solubility ([3]; IPA): S > 48.0 mg/mL
Solubility ([3]; THF): S > 32.0 mg/mL
SMILES: COCCN(CCCCc1ccc2c(n1)NCCC2)CC[C@H](Nc1ncnc2ccccc12)C(=O)O [(S)-4-((2-methoxyethyl)(4-(5,6,7,8-tetrahydro-1,8-naphthyrid] [(S)-4-((2-methoxyethyl)(4-(5,6,7,8-tetrahydro-1,8-naphthyridin-2-yl)butyl)amino)-2-(quinazolin-4-ylamino)butanoic acid]

IC50 [4]: < 50 nM
Solubility ([3]; ACN, organic solvent or mixture, thermodynamic from solid, ACN, read-out: Solubility): 1900 to 6300 µg/mL (≈ 3.86 to 12.8 mM)
Solubility ([3]; CPME, organic solvent or mixture, thermodynamic from solid, CPME, read-out: Solubility): 2600 to 8700 µg/mL (≈ 5.28 to 17.7 mM)
Solubility ([3]; EtOAc, organic solvent or mixture, thermodynamic from solid, EtOAc, read-out: Solubility): 2100 to 7000 µg/mL (≈ 4.26 to 14.2 mM)
Solubility ([3]; IPAc, organic solvent or mixture, thermodynamic from solid, IPAc, read-out: Solubility): 2300 to 7700 µg/mL (≈ 4.67 to 15.6 mM)
Solubility ([3]; MIBK, organic solvent or mixture, thermodynamic from solid, MIBK, read-out: Solubility): 2500 to 8300 µg/mL (≈ 5.07 to 16.8 mM)
Solubility ([3]; MTBE, organic solvent or mixture, thermodynamic from solid, MTBE, read-out: Solubility): < 2000 µg/mL
Solubility ([3]; MeOH, organic solvent or mixture, thermodynamic from solid, MeOH, read-out: Solubility): > 52000 µg/mL
Solubility ([3]; Toluene, organic solvent or mixture, thermodynamic from solid, Toluene, read-out: Solubility): 1900 to 6300 µg/mL (≈ 3.86 to 12.8 mM)
Solubility ([3]; n-Heptane, organic solvent or mixture, thermodynamic from solid, n-Heptane, read-out: Solubility): < 2200 µg/mL
SMILES: COCCN(CCCCc1ccc2c(n1)NCCC2)CC[C@H](Nc1ncnc2ccccc12)C(=O)O [(S)-4-((2-methoxyethyl)(4-(5,6,7,8-tetrahydro-1,8-naphthyridin-2-yl)butyl)amino)-2-(quinazolin-4-ylamino)butanoic acid]
